Source: patent US11524968B2, “Heterocyclic compound as a protein kinase inhibitor” (HK inno.N Corporation, priority 2017, dated 2022)

What follows are molecules tested against JAK1 (Homo sapiens (Human), UniProt P23458) (assay: Analysis of JAK1 activity inhibition ability (ADP-Glo Kinase Assay)). Details: JAK1 enzyme, ADP-Glo luminescence, ATP 250 uM, IRS-itide substrate, 30° C. 40 minutes; read-out: IC50.
Format: biochemical
Method in brief: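 JAK1 enzyme, IRS-itide substrate (40 ng/mL) and 250 uM ATP, both as prepared in kinase buffer (Tris-HCl pH 7.5, MgCl2, BSA, DTT), reacted with compound 40 min at 30 °C. ADP formed was detected by ADP-Glo luminescence; IC50 is the concentration giving 50% inhibition versus control.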

JAK1, sequence (P23458 whole entry): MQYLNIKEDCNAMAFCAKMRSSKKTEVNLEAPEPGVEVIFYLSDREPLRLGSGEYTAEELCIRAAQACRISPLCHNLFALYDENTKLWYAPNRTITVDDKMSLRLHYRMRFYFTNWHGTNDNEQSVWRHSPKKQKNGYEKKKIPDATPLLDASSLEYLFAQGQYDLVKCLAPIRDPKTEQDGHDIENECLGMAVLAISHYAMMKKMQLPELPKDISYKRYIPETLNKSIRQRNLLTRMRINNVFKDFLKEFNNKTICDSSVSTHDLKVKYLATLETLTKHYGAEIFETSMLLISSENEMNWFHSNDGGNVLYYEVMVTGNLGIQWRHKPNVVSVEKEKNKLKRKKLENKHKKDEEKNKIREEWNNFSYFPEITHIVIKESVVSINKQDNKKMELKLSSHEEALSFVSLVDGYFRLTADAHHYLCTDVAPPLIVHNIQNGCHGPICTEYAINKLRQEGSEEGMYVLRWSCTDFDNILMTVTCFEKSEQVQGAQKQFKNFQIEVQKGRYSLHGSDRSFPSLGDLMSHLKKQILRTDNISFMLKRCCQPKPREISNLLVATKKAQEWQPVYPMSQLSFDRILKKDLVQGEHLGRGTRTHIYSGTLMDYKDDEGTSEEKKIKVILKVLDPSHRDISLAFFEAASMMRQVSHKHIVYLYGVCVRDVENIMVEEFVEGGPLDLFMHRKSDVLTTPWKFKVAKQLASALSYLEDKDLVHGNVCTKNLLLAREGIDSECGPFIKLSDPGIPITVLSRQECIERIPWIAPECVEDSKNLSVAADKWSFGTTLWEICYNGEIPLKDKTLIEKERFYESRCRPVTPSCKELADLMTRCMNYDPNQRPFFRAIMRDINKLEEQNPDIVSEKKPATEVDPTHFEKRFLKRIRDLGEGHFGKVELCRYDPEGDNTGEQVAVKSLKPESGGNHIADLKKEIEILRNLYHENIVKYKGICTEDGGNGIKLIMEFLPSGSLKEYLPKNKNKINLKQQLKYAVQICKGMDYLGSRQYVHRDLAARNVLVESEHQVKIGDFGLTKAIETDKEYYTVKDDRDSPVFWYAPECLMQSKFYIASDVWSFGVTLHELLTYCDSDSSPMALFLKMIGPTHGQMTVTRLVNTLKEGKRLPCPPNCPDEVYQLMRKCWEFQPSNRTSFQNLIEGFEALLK

| Structure (SMILES) | IC50 [nM] |
| --- | --- |
| CCCC1C=C(c2cc(NC(=O)C3CC3)nc3[nH]ccc23)CCN1C(=O)CC#N (stereo not drawn) [Example 411, N-(4-(1-(2-cyanoacetyl)-6-propyl-1,2,3,6-tetrahydropyridin-4-yl)-1H-pyrrolo[2,3-b]pyridin-6-yl)cyclopropanecarboxamide] | 20 to 200 |
| CC(C)(C)C1C=C(c2cc(NC(=O)C3CC3)nc3[nH]ccc23)CCN1C(=O)CC#N (stereo not drawn) [Example 412, N-(4-(6-(tert-butyl)-1-(2-cyanoacetyl)-1,2,3,6-tetrahydropyridin-4-yl)-1H-pyrrolo[2,3-b]pyridin-6-yl)cyclopropanecarboxamide] | < 20 |
| CCC1CC(c2cc(NC(=O)C3CC3)nc3[nH]ccc23)=CCN1C(=O)CC#N (stereo not drawn) [Example 413, N-(4-(1-(2-cyanoacetyl)-2-ethyl-1,2,3,6-tetrahydropyridin-4-yl)-1H-pyrrolo[2,3-b]pyridin-6-yl)cyclopropanecarboxamide] | < 20 |
| N#CCC(=O)N1CC=C(c2cc(NC(=O)C3CC3)nc3[nH]ccc23)CC12CCC2 [Example 414, N-(4-(5-(2-cyanoacetyl)-5-azaspiro[3.5]non-7-en-8-yl)-1H-pyrrolo[2,3-b]pyridin-6-yl)cyclopropanecarboxamide] | < 20 |
| C[C@@H]1CN(C(=O)CC2(C#N)CC2)CC=C1c1cc(NC(=O)C2CC2)nc2[nH]ccc12 [Example 415, (S)—N-(4-(1-(2-(1-cyanocyclopropyl)acetyl)-3-methyl-1,2,3,6-tetrahydropyridin-4-yl)-1H-pyrrolo[2,3-b]pyridin-6-yl)cyclopropanecarboxamide] | < 20 |
| CC[C@@H]1C=C(c2cc(NC(=O)C3CC3)nc3[nH]ccc23)CCN1C(=O)CC#N [Example 416, (R)—N-(4-(1-(2-cyanoacetyl)-6-ethyl-1,2,3,6-tetrahydropyridin-4-yl)-1H-pyrrolo[2,3-b]pyridin-6-yl)cyclopropanecarboxamide] | < 20 |
| N#CCCC(=O)N1C=C(c2cc(NC(=O)C3CC3)nc3[nH]ccc23)CCC1 [Example 418, N-(4-(1-(3-cyanopropanoyl)-1,4,5,6-tetrahydropyridin-3-yl)-1H-pyrrolo[2,3-b]pyridin-6-yl)cyclopropanecarboxamide] | > 200 |
| N#CCC(=O)N1C=C(c2cc(NC(=O)C3CC3)nc3[nH]ccc23)CCC1 [Example 419, N-(4-(1-(2-cyanoacetyl)-1,4,5,6-tetrahydropyridin-3-yl)-1H-pyrrolo[2,3-b]pyridin-6-yl)cyclopropanecarboxamide] | > 200 |
| N#CCC(=O)N1CCC=C(c2cc(NC(=O)C3CC3)nc3[nH]ccc23)C1 [Example 420, N-(4-(1-(2-cyanoacetyl)-1,2,5,6-tetrahydropyridin-3-yl)-1H-pyrrolo[2,3-b]pyridin-6-yl)cyclopropanecarboxamide] | 20 to 200 |
| N#CCCC(=O)N1CCC=C(c2cc(NC(=O)C3CC3)nc3[nH]ccc23)C1 [Example 421, N-(4-(1-(3-cyanopropanoyl)-1,2,5,6-tetrahydropyridin-3-yl)-1H-pyrrolo[2,3-b]pyridin-6-yl)cyclopropanecarboxamide] | 20 to 200 |
| N#CCC(=O)N1CC=C(c2cc(NC(=O)C3CC3)nc3[nH]ccc23)CCC1 [Example 422, N-(4-(1-(2-cyanoacetyl)-2,5,6,7-tetrahydro-1H-azepin-4-yl)-1H-pyrrolo[2,3-b]pyridin-6-yl)cyclopropanecarboxamide] | < 20 |
| O=C(Nc1cc(C2=CCN(C(=O)c3ccnc(F)c3)CCC2)c2cc[nH]c2n1)C1CC1 [Example 423, N-(4-(1-(2-fluoroisonicotinoyl)-2,5,6,7-tetrahydro-1H-azepin-4-yl)-1H-pyrrolo[2,3-b]pyridin-6-yl)cyclopropanecarboxamide] | < 20 |
| O=C(Nc1cc(C2=CCN(C(=O)c3ccnc(F)c3F)CCC2)c2cc[nH]c2n1)C1CC1 [Example 424, N-(4-(1-(2,3-difluoroisonicotinoyl)-2,5,6,7-tetrahydro-1H-azepin-4-yl)-1H-pyrrolo[2,3-b]pyridin-6-yl)cyclopropanecarboxamide] | < 20 |
| N#CCC(=O)N1CC=C(c2nc(NC(=O)C3CC3)nc3[nH]ccc23)CC1 [Example 425, N-(4-(1-(2-cyanoacetyl)-1,2,3,6-tetrahydropyridin-4-yl)-7H-pyrrolo[2,3-d]pyrimidin-2-yl)cyclopropanecarboxamide] | 20 to 200 |
| N#CCC(=O)N1CC=C(c2cc(NC(=O)C3CC3)nc3[nH]ccc23)C1 [Example 426, N-(4-(1-(2-cyanoacetyl)-2,5-dihydro-1H-pyrrol-3-yl)-1H-pyrrolo[2,3-b]pyridin-6-yl)cyclopropanecarboxamide] | > 200 |
| N#CCCC(=O)N1CC=C(c2cc(NC(=O)C3CC3)nc3[nH]ccc23)C1 [Example 427, N-(4-(1-(3-cyanopropanoyl)-2,5-dihydro-1H-pyrrol-3-yl)-1H-pyrrolo[2,3-b]pyridin-6-yl)cyclopropanecarboxamide] | > 200 |
| O=C(Nc1cc(C2=CCN(C(=O)CC(F)(F)F)C2)c2cc[nH]c2n1)C1CC1 [Example 428, N-(4-(1-(3,3,3-trifluoropropanoyl)-2,5-dihydro-1H-pyrrol-3-yl)-1H-pyrrolo[2,3-b]pyridin-6-yl)cyclopropanecarboxamide] | > 200 |

| Structure (SMILES) | IC50 [nM] |
| --- | --- |
| O=C(Nc1cc(C2=CCN(C(=O)CCC(F)(F)F)C2)c2cc[nH]c2n1)C1CC1 [Example 429, N-(4-(1-(4,4,4-trifluorobutanoyl)-2,5-dihydro-1H-pyrrol-3-yl)-1H-pyrrolo[2,3-b]pyridin-6-yl)cyclopropanecarboxamide] | > 200 |
| N#CC1(C(=O)N2CC=C(c3cc(NC(=O)C4CC4)nc4[nH]ccc34)C2)CC1 [Example 430, N-(4-(1-(1-cyanocyclopropane-1-carbonyl)-2,5-dihydro-1H-pyrrol-3-yl)-1H-pyrrolo[2,3-b]pyridin-6-yl)cyclopropanecarboxamide] | > 200 |
| CCNC(=O)Nc1ccc(-c2cc(NC(=O)C3CC3)nc3[nH]ccc23)cc1 [Example 431, N-(4-(4-(3-ethylureido)phenyl)-1H-pyrrolo[2,3-b]pyridin-6-yl)cyclopropanecarboxamide] | 20 to 200 |
| O=C(Nc1cc(-c2ccc(NC(=O)N3CCOCC3)cc2)c2cc[nH]c2n1)C1CC1 [Example 432, N-(4-(6-(cyclopropanecarboxamido)-1H-pyrrolo[2,3-b]pyridin-4-yl)phenyl)morpholine-4-carboxamide] | 20 to 200 |
| CCCCNC(=O)Nc1ccc(-c2cc(NC(=O)C3CC3)nc3[nH]ccc23)cc1 [Example 433, N-(4-(4-(3-butylureido)phenyl)-1H-pyrrolo[2,3-b]pyridin-6-yl)cyclopropanecarboxamide] | 20 to 200 |
| O=C(NCC(F)(F)F)Nc1ccc(-c2cc(NC(=O)C3CC3)nc3[nH]ccc23)cc1 [Example 435, N-(4-(4-(3-(2,2,2-trifluoroethyl)ureido)phenyl)-1H-pyrrolo[2,3-b]pyridin-6-yl)cyclopropanecarboxamide] | 20 to 200 |
| Cc1cc(NC(=O)NCC(F)(F)F)ccc1-c1cc(NC(=O)C2CC2)nc2[nH]ccc12 [Example 436, N-(4-(2-methyl-4-(3-(2,2,2-trifluoroethyl)ureido)phenyl)-1H-pyrrolo[2,3-b]pyridin-6-yl)cyclopropanecarboxamide] | 20 to 200 |
| O=C(Nc1ccc(-c2nc(NC(=O)C3CC3)nc3[nH]ccc23)cc1)NC1CC1 [Example 437, N-(4-(4-(3-cyclopropylureido)phenyl)-7H-pyrrolo[2,3-d]pyrimidin-2-yl)cyclopropanecarboxamide] | > 200 |
| CCNC(=O)Nc1ccc(-c2nc(NC(=O)C3CC3)nc3[nH]ccc23)cc1 [Example 438, N-(4-(4-(3-ethylureido)phenyl)-7H-pyrrolo[2,3-d]pyrimidin-2-yl)cyclopropanecarboxamide] | > 200 |
| CCCCNC(=O)Nc1ccc(-c2nc(NC(=O)C3CC3)nc3[nH]ccc23)cc1 [Example 439, N-(4-(4-(3-butylureido)phenyl)-7H-pyrrolo[2,3-d]pyrimidin-2-yl)cyclopropanecarboxamide] | 20 to 200 |
| O=C(Nc1ccc(-c2nc(NC(=O)C3CC3)nc3[nH]ccc23)cc1)Nc1ccc(F)c(F)c1 [Example 440, N-(4-(4-(3-(3,4-difluorophenyl)ureido)phenyl)-7H-pyrrolo[2,3-d]pyrimidin-2-yl)cyclopropanecarboxamide] | 20 to 200 |
| O=C(Nc1ccc(F)cc1)Nc1ccc(-c2nc(NC(=O)C3CC3)nc3[nH]ccc23)cc1 [Example 441, N-(4-(4-(3-(4-fluorophenyl)ureido)phenyl)-7H-pyrrolo[2,3-d]pyrimidin-2-yl)cyclopropanecarboxamide] | 20 to 200 |
| O=C(NCC(F)(F)F)NC1CC=C(c2cc(NC(=O)C3CC3)nc3[nH]ccc23)CC1 (stereo not drawn) [Example 442, N-(4-(4-(3-(2,2,2-trifluoroethyl)ureido)cyclohex-1-en-1-yl)-1H-pyrrolo[2,3-b]pyridin-6-yl)cyclopropanecarboxamide] | < 20 |
| O=C(Nc1cc(C2=CCN(C(=O)NCC(F)(F)F)CC2)c2cc[nH]c2n1)C1CC1 [Example 443, 4-(6-(cyclopropanecarboxamido)-1H-pyrrolo[2,3-b]pyridin-4-yl)-N-(2,2,2-trifluoroethyl)-3,6-dihydropyridine-1 (2H)-carboxamide] | < 20 |
| CCCCNC(=O)N1CC=C(c2cc(NC(=O)C3CC3)nc3[nH]ccc23)CC1 [Example 444, N-butyl-4-(6-(cyclopropanecarboxamido)-1H-pyrrolo[2,3-b]pyridin-4-yl)-3,6-dihydropyridine-1 (2H)-carboxamide] | 20 to 200 |
| O=C(Nc1cc(C2=CCN(C(=O)N3CCS(=O)(=O)CC3)CC2)c2cc[nH]c2n1)C1CC1 [Example 445, N-(4-(1-(1,1-dioxidothiomorpholine-4-carbonyl)-1,2,3,6-tetrahydropyridin-4-yl)-1H-pyrrolo[2,3-b]pyridin-6-yl)cyclopropanecarboxamide] | 20 to 200 |
